Measurements: patent US11162117B2, “Whole-cell catalytic system and applications thereof” (National Taiwan University, priority 2018, dated 2021)

Assays:
Assay type in all cases: cell-based, Marinobacter aquaeoli VT8
AlkR protein [1] = test: Alkane induction assay: mRFP reporter in E. coli JM109 carrying psb4K5-alkR-mRFP plasmid (flow cytometry)
Protocol: (§1) E. coli JM109 carrying the psb4K5-alkR-mRFP plasmid was cultured overnight at 37° C. and 125-150 rpm in 3 mL of LB medium containing 50 μg/mL kanamycin. The overnight culture was diluted 1000-fold in LB medium in a 100 mL Hinton's flask and cultured at 37° C. To induce the expression of red fluorescent protein, 1% (v/v) of the various indicated hydrocarbons was added to the culture when the absorbance at 600 nm (O.D.600) reached about 0.6. At 0, 3, 6, 9, and 12 hours after the induction, 500 μL of the abovementioned bacterial culture was collected and centrifuged to obtain a cell pellet, which was washed twice and resuspended with phosphate buffer saline (PBS). Flow cytometry (BD FACSCanto II) was used to measure the mean fluorescence intensity of the cells and the distribution of cells with different fluorescence intensities (an excitation wavelength at 532 nm and an emission wavelength at 588 nm). For the E. coli JM109 that additionally carrying an expression vector of an alkane transporter, rhamnose was first added to the bacterial culture at an O.D.600 of about 0.6, and 1% (v/v) of the various indicated hydrocarbons was added three hours thereafter.
First, E. coli JM109 was transformed with the psb4K5-alkR-mRFP plasmid shown in FIG. 1, which was a reporter plasmid including the alkR gene, the gene encoding the red fluorescent protein, and the promoter thereof. […] At 0, 3, 6, 9, and 12 hours after the induction, the mean fluorescence intensity and fluorescence distribution of E. coli cells were measured by flow cytometry. […]
It was also studied whether the medium-chain or long-chain alkane terminal oxidation products would inhibit the activating effect of the AlkR protein on gene expression. In the alkane induction assay using n-dodecane as the inducer, 0.1% (v/v) or 1% (v/v) 1-dodecanol was additionally added to the E. coli culture, and the mean fluorescence intensity of the E. coli cells was measured at 6 and 12 hours after the induction, with the results shown in FIG. 10.

AlkR protein [2] = test: Alkane induction assay in E. coli JM109 carrying psb4K5-alkR-mRFP and rhamnose-inducible psb3C5-rha-weak alkL (or mock psb3C5-rha) plasmid; details: for expression of red fluorescent protein (mean fluorescence intensity) compared to no rhamnose addition: AlkL plasmid, 0.01% (w/v) rhamnose then 1% (v/v) n-tetradecane, 6 h after induction, FIG. 14
Protocol: as §1
This characteristic might prevent the recombinant microorganism including the CYP153A operon from being induced by the medium-chain or long-chain alkanes or medium-chain or long-chain fatty acid methyl esters and producing the medium-chain or long-chain alkane terminal oxidation products. In order to promote the entry of medium-chain or long-chain alkanes into cells, the recombinant microorganism of the present invention may further express an alkane transporter. The AlkL protein of P. putida GPol is an exemplary alkane transporter used in this example to investigate the effects of alkane transporter expression on the uptake of medium-chain or long-chain alkanes or medium-chain or long-chain fatty acid methyl esters by the recombinant microorganisms. The AlkL protein is cytotoxic and its expression should be tightly regulated. […] At 6 hours after the induction, the mean fluorescence intensity of E. coli cells was measured by flow cytometry.
The AlkL protein was also tested for the ability to promote the uptake of various medium-chain or long-chain alkanes and methyl laurate by microbial cells. […] After 3 hours of incubation, 1% (v/v) n-octane, n-decane, n-dodecane, n-tetradecane, n-hexadecane, n-octadecane, or methyl laurate was added to induce the expression of red fluorescent protein, and the mean fluorescence intensity and fluorescence distribution of E. coli cells were measured by flow cytometry 6 hours after the induction. […]

CYP153A operon [3] = test: CYP153A expression in recombinant E. coli carrying pBBR1-CYPLR plasmid (SDS-PAGE, CO difference spectroscopy); details: 1% (v/v) methyl laurate, pBBR1-CYPLR vs pBBR1-alkR plasmid
Protocol: E. coli JM109 carrying the pBBR1-CYPLR plasmid or the pBBR1-alkR plasmid was overnight cultured at 37° C. and 125-150 rpm in 3 mL of LB medium containing 50 μg/mL kanamycin. The overnight culture was diluted 1000-fold in 3 mL of LB medium containing 50 μg/mL kanamycin and cultured at 37° C. 1% (v/v) methyl laurate was added to the culture at an O.D.600 of about 0.6 and a further incubation at 30° C. was carried out for 12 hours. The cell pellet obtained by centrifuging the abovementioned bacterial culture was washed and resuspended with PBS, and then subjected to protein expression analysis by sodium dodecyl sulfate polyacrylamide gel electrophoresis (SDS-PAGE) or carbon monoxide (CO) difference spectroscopy.
Samples of bacterial cells were mixed with sample buffer (50 mM Tris-HCl, pH 6.8, 100 mM dithiothreitol (DTT), 2% SDS, 0.1% bromophenol blue, 10% glycerol) and boiled for 10 minutes. […]
It was studied whether CYP153A expression in the recombinant E. coli carrying the reconstructed CYP153A operon from M. aquaeoli VT8 would be induced by medium-chain or long-chain fatty acid methyl esters. […] At 12 hours after the induction, the expression of CYP153A was analyzed by SDS-PAGE, and the protein molecular size and activity of the cytochrome P450 consisting of CYP153A, ferredoxin, and ferredoxin reductase were verified by carbon monoxide difference spectroscopy.

CYP153A operon [4] = test: n-Octane-induced 1-octanol production by recombinant E. coli carrying pBBR1-CYPLR plasmid (gas chromatography); details: 1% (v/v) n-octane; 12 h after induction; pBBR1-CYPLR vs pBBR1-alkR plasmid; FIG. 13
Protocol: The medium-chain or long-chain alkane terminal oxidation product in the sample was analyzed qualitatively and quantitatively by gas chromatography. The analysis of alkanols and alkanediols was described as follows, with 1-octanol taken as example. 10 mg of 1,8-octanediol was added as an internal standard to 10 mL of the collected bacterial culture, and the mixture was extracted twice with double volumes of ethyl acetate. […] The obtained product was analyzed for composition by Varian CP-3800 gas chromatograph equipped with a DB-5 column and a flame ionization detector (FID). […] Alkanoic acids, alkanedioic acids, or alcohol acids were analyzed similarly as described above. In one embodiment of the present invention, 12-hydroxydodecanoic acid was analyzed using dodecanol as the internal standard.
It was studied whether the recombinant E. coli carrying the reconstructed CYP153A operon from M. aquaeoli VT8 would be induced to express the cytochrome P450 with oxidative activity and produce medium-chain or long-chain alkane terminal oxidation products in response to medium-chain or long-chain alkanes. […] At 12 hours after the induction, the production of 1-octanol in the bacterial culture was analyzed by gas chromatography.

CCCCCCCCCCCCO [1-dodecanol]
inhibition of n-dodecane-induced red fluorescent protein expression (AlkR protein [1]; 0.1% or 1% (v/v) 1-dodecanol added with 1% n-dodecane inducer, 6 and 12 h, FIG. 10): did not inhibit the expression of red fluorescent protein

CCCCCCCCCCCC(=O)OC [methyl laurate]
expression of red fluorescent protein in control groups (mock vector) vs non-induced groups (AlkR protein [2]; psb3C5-rha mock vector, 0.01% rhamnose 3 h then 1% (v/v) inducer 6 h, FIG. 15): induce significantly more expression of the red fluorescent protein | whole-cell carbon monoxide difference spectrum (400-500 nm) (CYP153A operon [3]; 12 h, FIGS. 12A-12B): absorption peak at about 450 nm | CYP153A expression by SDS-PAGE (CYP153A operon [3]; 12 h after induction, FIG. 11): expressed the CYP153A | expression of red fluorescent protein (mean fluorescence intensity) relative to control group (AlkR protein [1]; 1% (v/v) inducer, 0-12 h, recombinant E. coli JM109, vs untreated control, FIG. 8): induced the expression of red fluorescent protein

CCCCCCCC [n-octane]
induction of cytochrome P450 with oxidative activity (1-octanol production, gas chromatogram) (CYP153A operon [4]): additional peak at the retention time of 1-octanol | number of E. coli cells induced to express red fluorescent protein (fluorescence distribution histograms) (AlkR protein [1]; 1% (v/v) alkane, 0 vs 6 h after induction, FIGS. 9A-9F): more E. coli cells were induced to express the red fluorescent protein

CCCCCCCCCCCCCC [n-tetradecane]
expression of red fluorescent protein (mean fluorescence intensity) compared to no rhamnose addition (AlkR protein [2]): induced significantly more expression of the red fluorescent protein | expression of red fluorescent protein in E. coli cells expressing both AlkL and AlkR proteins vs control groups (AlkR protein [2]; psb3C5-rha-weak alkL plasmid, 0.01% rhamnose 3 h then 1% (v/v) alkane 6 h, FIG. 15): more effective in inducing the expression of red fluorescent protein

C[C@H](O)[C@H](O)[C@@H](O)[C@@H](O)C=O [rhamnose, reference compound]
expression of red fluorescent protein (mean fluorescence intensity) compared to no rhamnose addition (AlkR protein [2]): induced significantly more expression of the red fluorescent protein
